According to PubChem BioAssay (NCI):
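Cultured in 96-well plates, cells were exposed to test compound for 48 hours across five concentrations. The concentration for 50% growth inhibition is given as GI50. The concentration for full growth arrest is given as TGI.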

Legend:
Assay in all cases: NCI-60 cell line screen, 48 h
[1] = test system: ACHN renal
[2] = test system: CAKI-1 renal
[3] = test system: CCRF-CEM leukemia
[4] = test system: PC-3 prostate
[5] = test system: HL-60(TB) leukemia
[6] = test system: NCI-H522 lung
[7] = test system: SF-268 CNS
[8] = test system: SF-539 CNS
[9] = test system: U251 CNS
[10] = test system: OVCAR-3 ovarian
[11] = test system: SK-OV-3 ovarian
[12] = test system: NCI-H226 lung
[13] = test system: RPMI-8226 leukemia
[14] = test system: K-562 leukemia
[15] = test system: DU-145 prostate
[16] = test system: SR leukemia
[17] = test system: UACC-62 melanoma
[18] = test system: COLO 205 colon
[19] = test system: SK-MEL-28 melanoma
[20] = test system: NCI/ADR-RES ovarian
[21] = test system: A498 renal
[22] = test system: MDA-MB-435
[23] = test system: OVCAR-5 ovarian
[24] = test system: KM12 colon
[25] = test system: RXF 393 renal
[26] = test system: MCF7 breast
[27] = test system: MOLT-4 leukemia
[28] = test system: SK-MEL-2 melanoma
[29] = test system: HOP-62 NSCLC
[30] = test system: HCT-15 colon
[31] = test system: LOX IMVI melanoma
[32] = test system: M14 melanoma
[33] = test system: IGROV1 ovarian
[34] = test system: NCI-H460 lung
[35] = test system: HS 578T breast
[36] = test system: SNB-75 CNS
[37] = test system: UACC-257 melanoma
[38] = test system: UO-31 renal
[39] = test system: HT29 colon
[40] = test system: HCC-2998 colon
[41] = test system: OVCAR-8 ovarian
[42] = test system: OVCAR-4 ovarian
[43] = test system: SNB-19 CNS
[44] = test system: 786-0 renal
[45] = test system: SW-620 colon
[46] = test system: MDA-MB-231 breast
[47] = test system: SF-295 CNS
[48] = test system: HCT-116 colon
[49] = test system: SN12C renal
[50] = test system: A549 NSCLC
[51] = test system: SK-MEL-5 melanoma

## CC(C)(C)CC(C)(C)N(CSc1ccc(Cl)cc1)CSc1ccc(Cl)cc1
[1]
  GI50: 2.56 µM
  TGI: 11.4 µM
[2]
  GI50: 1.78 µM
  TGI: 4.55 µM
[3]
  GI50: 0.366 µM
  TGI: 3.38 µM
[4]
  GI50: 0.472 µM
  TGI: 4.3 µM
[5]
  GI50: 1.75 µM
  TGI: 3.96 µM
[6]
  GI50: 1.65 µM
  TGI: 3.08 µM
[7]
  GI50: 0.803 µM
  TGI: 4.39 µM
[8]
  GI50: 1.23 µM
  TGI: 2.56 µM
[9]
  GI50: 0.415 µM
  TGI: 2.09 µM
[10]
  GI50: 1.78 µM
  TGI: 4.25 µM
[11]
  GI50: 2.68 µM
  TGI: 12.4 µM
[12]
  GI50: 0.836 µM
  TGI: 2.67 µM
[13]
  GI50: 2.17 µM
  TGI: 5.11 µM
[14]
  GI50: 3.49 µM
  TGI: 26 µM
[15]
  GI50: 2.25 µM
  TGI: 11.2 µM
[16]
  GI50: 1.23 µM
  TGI: 5.51 µM
[17]
  GI50: 1.72 µM
  TGI: 3.77 µM
[18]
  GI50: 2.15 µM
  TGI: 4.19 µM
[19]
  GI50: 1.99 µM
  TGI: 5.74 µM
[20]
  GI50: 2.42 µM
  TGI: > 100 µM
[21]
  GI50: 0.207 µM
  TGI: 0.863 µM
[22]
  GI50: 1.45 µM
  TGI: 4.05 µM
[23]
  GI50: 2.19 µM
  TGI: 6.26 µM
[24]
  GI50: 0.486 µM
  TGI: 4.55 µM
[25]
  GI50: 1.87 µM
  TGI: 7.06 µM
[26]
  GI50: 2.2 µM
  TGI: 10.2 µM
[27]
  GI50: 0.841 µM
  TGI: 5.09 µM
[28]
  GI50: 2.54 µM
  TGI: 6.28 µM
[29]
  GI50: 0.57 µM
  TGI: 10.8 µM
[30]
  GI50: 2.29 µM
  TGI: 11.5 µM
[31]
  GI50: 0.337 µM
  TGI: 1.06 µM
[32]
  GI50: 1.92 µM
  TGI: 5.91 µM
[33]
  GI50: 0.745 µM
  TGI: 2.7 µM
[34]
  GI50: 0.829 µM
  TGI: 8.38 µM
[35]
  GI50: 1.72 µM
  TGI: > 100 µM
[36]
  GI50: 1.13 µM
  TGI: 5.68 µM
[37]
  GI50: 1.85 µM
  TGI: 6.18 µM
[38]
  GI50: 0.489 µM
  TGI: 1.93 µM
[39]
  GI50: 2.83 µM
  TGI: 9.18 µM
[40]
  GI50: 4.62 µM
  TGI: 16.4 µM
[41]
  GI50: 1.74 µM
  TGI: 7.57 µM
[42]
  GI50: 1.74 µM
  TGI: 9.88 µM
[43]
  GI50: 2.14 µM
  TGI: 19.9 µM
[44]
  GI50: 1.56 µM
  TGI: 4.01 µM
[45]
  GI50: 2.02 µM
  TGI: 4.93 µM
[46]
  GI50: 0.486 µM
  TGI: 2.2 µM
[47]
  GI50: 0.316 µM
  TGI: 1.33 µM
[48]
  GI50: 1.42 µM
  TGI: 5.85 µM
[49]
  GI50: 0.506 µM
  TGI: 3.45 µM
[50]
  GI50: 0.452 µM
  TGI: 7.7 µM
[51]
  GI50: 1.29 µM
  TGI: 2.61 µM
